Source: patent US12295396B2, “Antagonists of T2R54 and compositions and uses thereof” (Firmenich Incorporated, priority 2018, dated 2025)

Target: T1, hT2R54 (Homo sapiens, UniProt P59534)
T1 construct: expressed in transfected cells; it overexpresses a promiscuous G protein
T1 sequence (P59534 1-338): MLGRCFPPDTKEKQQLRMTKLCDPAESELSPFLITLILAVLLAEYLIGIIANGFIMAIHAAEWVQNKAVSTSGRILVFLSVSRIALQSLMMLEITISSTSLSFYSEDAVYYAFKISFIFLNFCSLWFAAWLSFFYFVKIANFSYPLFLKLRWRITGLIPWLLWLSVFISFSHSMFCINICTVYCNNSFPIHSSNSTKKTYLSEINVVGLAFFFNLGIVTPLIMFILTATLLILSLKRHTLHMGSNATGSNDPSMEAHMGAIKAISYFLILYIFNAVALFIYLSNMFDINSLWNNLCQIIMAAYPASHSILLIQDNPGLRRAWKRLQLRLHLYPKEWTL
Assay: Cell-based assay for measuring hT2R54 inhibition (FLIPR calcium, Fluo4AM, acetaminophen as bitter agonist)
Details: Table 2; cells stably expressing hT2R54 and a promiscuous G protein; read-out: hT2R54 IC50
Procedure: Cells stably expressing hT2R54 and a promiscuous G protein were seeded in 384 well plates 24 hours prior to the experiment. Cells were loaded with the calcium indicator Fluo4AM, washed and loaded in a FLIPR instrument with a compound plate containing increasing doses of acetaminophen in quadruplicates and prepared at 2× of final concentration. Baseline was recorded for 10 seconds, then 25 μl of […] was added onto 25 μl of cells and resulting changes in fluorescence were monitored over an additional 3 minutes. The host cell line overexpressing the G protein but not hT2R54 was treated as described above.
The ability of a test compound that blocks bitter taste elicited through hT2R54 was measured in this assay, as follows. Cells stably expressing hT2R54 and a promiscuous G protein were seeded in 384 well plates 24 hours prior to the experiment. Cells were loaded with the calcium indicator Fluo4AM, washed and loaded in a FLIPR instrument with a compound plate containing increasing doses of acetaminophen in buffer and increasing doses of acetaminophen with depicted fixed concentrations of Cmpd 109 (Table 4). Base line was recorded for 10 seconds, then 25 μl of compound and compound mixtures were added onto 25 μl of cells and resulting changes in fluorescence were monitored over an additional 3 minutes. The concentration of test compound that blocks half of the response when the bitter compound alone is present is presented as the EC50 or IC50 value.
In the examples above, the EC50 of compounds for blocking bitter taste elicited through T2R54 was measured in the same manner.

| IC50 | Compound |
| --- | --- |
| 150 nM | CC(=O)c1cc2c(cc1NC(=O)CN1CCN(C(=O)C3CCCCC3)CC1)OCO2 [compound 17] |
| 58 nM | CC(=O)c1cc2c(cc1NC(=O)CN1CCN(C(=O)c3ncoc3C)CC1)OCO2 [compound 299] |
| 23 nM | CC(=O)c1cc2c(cc1NC(=O)CN1CCN(C(=O)c3ccsc3)CC1)OCO2 [compound 37] |
| 50 nM | CC(=O)c1cc2c(cc1NC(=O)CN1CCN(C(=O)c3cccc(O)c3)CC1)OCO2 [compound 38] |
| 50 nM | CC(=O)c1cc2c(cc1NC(=O)CN1CCN(C(=O)Nc3ccccc3)CC1)OCO2 [compound 33] |
| 880 nM | COc1cc2c(cc1NC(=O)CN1CCN(C(=O)CC3CCCO3)CC1)OCO2 (stereo not drawn) [compound 408] |
| 30 nM | CC(=O)c1cc2c(cc1NC(=O)CN1CCN(C(=O)c3csnn3)CC1)OCO2 [compound 284] |
| 1140 nM | COc1cc2c(cc1NC(=O)CN1CCN(C(=O)C3CCCCO3)CC1)OCO2 (stereo not drawn) [compound 86] |
| 65 nM | COCc1ccc(C(=O)N2CCN(CC(=O)Nc3cc4c(cc3C(C)=O)OCO4)CC2)o1 [compound 288] |
| 70 nM | CC(=O)c1cc2c(cc1NC(=O)CN1CCN(C(=O)CC3CCCO3)CC1)OCO2 (stereo not drawn) [compound 322] |
| 2600 nM | COc1cc2c(cc1NC(=O)CN1CCN(C(=O)c3ncn[nH]3)CC1)OCO2 [compound 388] |
| 1400 nM | COc1cc2c(cc1NC(=O)CN1CCN(C(=O)c3ncn[nH]3)CC1)OCO2 [compound 399] |
| 402 nM | CC(=O)c1cc2c(cc1NC(=O)CN1CCN(C(=O)c3cccc(CO)c3)CC1)OCO2 [compound 50] |
| 4360 nM | CC(=O)c1cc2c(cc1NC(=O)CN1CCN(C(=O)C3CCN(C)CC3)CC1)OCO2 [compound 25] |
| 18 nM | CC(=O)c1cc2c(cc1NC(=O)CN1CCN(C(=O)C3CCCCO3)CC1)OCO2 (stereo not drawn) [compound 23] |
| 107 nM | CC(=O)c1cc2c(cc1NC(=O)CN1CCN(C(=O)CN3CCOCC3)CC1)OCO2 [compound 28] |
| 70 nM | CC(=O)c1cc2c(cc1NC(=O)CN1CCN(C(=O)[C@H]3CCCO3)CC1)OCCO2 [compound 342] |
| 1510 nM | COc1cc2c(cc1NC(=O)CN1CCN(C(=O)c3ccccn3)CC1)OCO2 [compound 94] |
| 800 nM | COc1cc2c(cc1NC(=O)CN1CCN(C(=O)c3ccc(O)cc3)CC1)OCO2 [compound 380] |
| 1560 nM | COc1cc2c(cc1NC(=O)CN1CCN(C(C)=O)CC1)OCO2 [compound 364] |
| 800 nM | CC(=O)c1cc2c(cc1NC(=O)CN1CCN(C(=O)c3cn[nH]c3)CC1)OCO2 [compound 302] |

| Compound | IC50 |
| --- | --- |
| CC(=O)c1cc2c(cc1NC(=O)CN1CCN(C(=O)Cc3ccoc3)CC1)OCO2 [compound 324] | 80 nM |
| CC(=O)c1cc2c(cc1NC(=O)CN1CCN(C(=O)Cc3cccc(O)c3)CC1)OCO2 [compound 57] | 100 nM |
| CC(=O)c1cc2c(cc1NC(=O)CN1CCN(C(=O)Cc3cccc(F)c3)CC1)OCO2 [compound 59] | 200 nM |
| CC(=O)c1cc2c(cc1NC(=O)CN1CCN(C(=O)Cc3ccccc3)CC1)OCO2 [compound 52] | 51 nM |
| COc1cc2c(cc1NC(=O)CN1CCN(C(=O)Cc3ccoc3)CC1)OCO2 [compound 401] | 130 nM |
| CC(=O)c1cc2c(cc1NC(=O)CN1CCN(C(=O)Cc3cccnc3)CC1)OCO2 [compound 56] | 80 nM |

Same assay, conditions: Table 3; cells stably expressing hT2R54 and a promiscuous G protein; read-out: hT2R54 IC50

| IC50 | Compound |
| --- | --- |
| 1300 nM | CC(=O)c1cc2c(cc1NC(=O)CN1CCN(CC3CCCO3)CC1)OCO2 (stereo not drawn) [compound 415] |

Same assay, conditions: Table 4; cells stably expressing hT2R54 and a promiscuous G protein; read-out: hT2R54 IC50

| IC50 | Compound |
| --- | --- |
| 200 nM | COc1cc2c(cc1NC(=O)CN1CCSCC1)OCO2 [compound 442] |
| 1150 nM | COCCN(C)CC(=O)Nc1cc2c(cc1C(C)=O)OCO2 [compound 426] |
| < 1000 nM | CC(=O)c1cc2c(cc1NC(=O)CN1CCN(C(=O)OC(C)(C)C)CC1)OCO2 [compound 129] |
| 373 nM | CCN(CCCOC)CC(=O)Nc1cc2c(cc1C(C)=O)OCO2 [compound 427] |

Same assay, conditions: Table 5; cells stably expressing hT2R54 and a promiscuous G protein; read-out: hT2R54 IC50

| IC50 | Compound |
| --- | --- |
| 107 nM | CC(=O)c1cc2c(cc1NC(=O)CN1CCCC(C(=O)N(C)C)C1)OCO2 (stereo not drawn) [compound 158] |
| 969 nM | CNC(=O)C1CCCN(CC(=O)Nc2cc3c(cc2OC)OCO3)C1 (stereo not drawn) [compound 453] |
| 24 nM | CNC(=O)C1CCCN(CC(=O)Nc2cc3c(cc2C(C)=O)OCO3)C1 (stereo not drawn) [compound 154, 1-(2-((6-Acetylbenzo[d][1,3]dioxol-5-yl)amino)-2-oxoethyl)-N-methylpiperidine-3-carboxamide] |

Same assay, conditions: Table 6; cells stably expressing hT2R54 and a promiscuous G protein; read-out: hT2R54 IC50

| IC50 | Compound |
| --- | --- |
| 589 nM | CC(=O)c1cc2c(cc1NC(=O)CN1CCC(N(C)C(=O)CC(C)C)CC1)OCO2 [compound 180] |
| 676 nM | CC(=O)c1cc2c(cc1NC(=O)CN1CCC(N(C)C(=O)c3ccco3)CC1)OCO2 [compound 181] |

Same assay, conditions: Table 7; cells stably expressing hT2R54 and a promiscuous G protein; read-out: hT2R54 IC50

| IC50 | Compound |
| --- | --- |
| 20 nM | CC(=O)c1cc2c(cc1NC(=O)CN(C)C1CCCN(C(=O)c3ccco3)C1)OCO2 (stereo not drawn) [compound 186] |
| 100 nM | CC(=O)c1cc2c(cc1NC(=O)CN(C)C1CCCN(C(=O)c3cccnc3)C1)OCO2 (stereo not drawn) [compound 187] |

Same assay, conditions: Table 8; read-out: hT2R54 IC50

| IC50 | Compound |
| --- | --- |
| 130 nM | CC(=O)c1cc2c(cc1NC(=O)CC1CCCN(C(=O)c3ncc[nH]3)C1)OCO2 (stereo not drawn) [compound 505] |
| 6000 nM | CC(=O)c1cc2c(cc1NC(=O)CC1CCCN(C(=O)c3cc(O)cc(O)c3)C1)OCO2 (stereo not drawn) [compound 455] |
| 35 nM | CC(=O)c1cc2c(cc1NC(=O)CC1CCCN(C(C)=O)C1)OCO2 (stereo not drawn) [compound 202] |
| > 10000 nM | COc1cc2c(cc1NC(=O)CC1CCN(C(=O)C3CCCO3)CC1)OCO2 (stereo not drawn) [compound 497] |
| 160 nM | CC(=O)c1cc2c(cc1NC(=O)CC1CCN(C(=O)c3cc(CO)on3)CC1)OCCO2 [compound 490] |
| 99 nM | COCc1ccc(C(=O)N2CCCC(CC(=O)Nc3cc4c(cc3C(C)=O)OCO4)C2)cc1 (stereo not drawn) [compound 503] |
| 2700 nM | COc1cc2c(cc1NC(=O)CC1CCCN(C(=O)c3ccccc3)C1)OCO2 (stereo not drawn) [compound 513] |
| 760 nM | CC(=O)c1cc2c(cc1NC(=O)CC1CCN(C(=O)Cc3cccnc3)CC1)OCO2 [compound 250] |
| > 1000 nM | CC(=O)c1cc2c(cc1NC(=O)CC1CCN(C(=O)C3CCCCC3)CC1)OCO2 [compound 239] |
| 184 nM | CC(=O)c1cc2c(cc1NC(=O)CC1CCCN(C(=O)c3ccoc3)C1)OCO2 (stereo not drawn) [compound 196, N-(6-Acetylbenzo[d][1,3]dioxol-5-yl)-2-(1-(furan-3-carbonyl)piperidin-3-yl)acetamide] |
| 95 nM | CC(=O)c1cc2c(cc1NC(=O)CC1CCN(C(=O)c3cnn[nH]3)CC1)OCO2 [compound 459] |
| 60 nM | CC(=O)c1cc2c(cc1NC(=O)CC1CCCN(S(C)(=O)=O)C1)OCO2 (stereo not drawn) [compound 222] |
| 450 nM | CC(=O)c1cc2c(cc1NC(=O)CC1CCN(C(=O)C3CCCO3)CC1)OCCO2 (stereo not drawn) [compound 493] |
| 1090 nM | CC(=O)c1cc2c(cc1NC(=O)CC1CCN(C(=O)Cc3ccccc3O)CC1)OCO2 [compound 252] |
| 160 nM | COCc1cc(C(=O)N2CCC(CC(=O)Nc3cc4c(cc3C(C)=O)OCCO4)CC2)no1 [compound 491] |
| 1340 nM | CC(=O)c1cc2c(cc1NC(=O)CC1CCCN(C(=O)C3CCOC3)C1)OCO2 (stereo not drawn) [compound 210] |
| > 10000 nM | COc1cc2c(cc1NC(=O)CC1CCCN(C(=O)CC(C)C)C1)OCO2 (stereo not drawn) [compound 511] |
| 25 nM | CC(=O)c1cc2c(cc1NC(=O)C[C@@H]1CCCN(C(=O)CC(C)C)C1)OCO2 [compound 206] |
| 149 nM | CC(=O)c1cc2c(cc1NC(=O)CC1CCN(C(=O)c3ccoc3)CC1)OCO2 [compound 200, N-(6-Acetylbenzo[d][1,3]dioxol-5-yl)-2-(1-(furan-3-carbonyl)piperidin-4-yl)acetamide] |

Same assay, conditions: Table 9; read-out: hT2R54 IC50

| IC50 | Compound |
| --- | --- |
| 3000 nM | CC(=O)c1cc2c(cc1NC(=O)CC(C)C)OCO2 [compound 516] |
| 554 nM | CC(=O)c1cc2c(cc1NC(=O)Cc1ccc(O)cc1)OCO2 [compound 274] |
| 3000 nM | COc1cc2c(cc1NC(=O)C(C)C1CCN(C(=O)OC(C)(C)C)CC1)OCO2 (stereo not drawn) [compound 525] |
| 868 nM | COc1cc2c(cc1NC(=O)Cc1ccsc1)OCO2 [compound 524] |
| ~1000 nM | COC(=O)c1cc2c(cc1NC(=O)CC1CCN(C(=O)OC(C)(C)C)CC1)OCO2 [compound 528] |
| 1390 nM | CC(=O)c1cc2c(cc1NC(=O)CC1CCOC1)OCO2 (stereo not drawn) [compound 272] |
| 414 nM | CC(=O)c1cc2c(cc1NC(=O)CC1CCCC1)OCO2 [compound 517] |
| 804 nM | COc1ccccc1CC(=O)Nc1cc2c(cc1C(C)=O)OCO2 [compound 276] |
